Data published in US9089565B2, “Compositions and methods for causing neurite outgrowth” (MEDICAL RESEARCH COUNCIL, priority 2009, dated 2015).
* marks the point of attachment. Myristoyl = CCCCCCCCCCCCCC(=O)*

T1: NgR1 (Homo sapiens, UniProt Q9BZR6, S281D)
T1 construct: The cDNAs of NgR1 (NM 023004, Nt. 184-1543); expressed in transfected cells; host or cells: COS7
T1 sequence (Q9BZR6 27-447 S281D): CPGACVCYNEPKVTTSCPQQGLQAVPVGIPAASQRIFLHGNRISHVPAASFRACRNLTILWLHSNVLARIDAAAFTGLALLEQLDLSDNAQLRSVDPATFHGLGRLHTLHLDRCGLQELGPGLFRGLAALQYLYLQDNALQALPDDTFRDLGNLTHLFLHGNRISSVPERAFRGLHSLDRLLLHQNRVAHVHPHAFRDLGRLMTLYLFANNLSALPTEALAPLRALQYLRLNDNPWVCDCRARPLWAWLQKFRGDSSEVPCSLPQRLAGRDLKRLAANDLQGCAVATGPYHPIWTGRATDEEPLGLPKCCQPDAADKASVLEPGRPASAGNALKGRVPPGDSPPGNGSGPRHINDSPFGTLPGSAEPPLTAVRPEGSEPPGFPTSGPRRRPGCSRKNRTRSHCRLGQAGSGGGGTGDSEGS


Key:
NgR1 [1] = experiment: Phosphorylation of endogenous NgR1 (upper band, immunoblotting) in RA-treated SH-SY5Y cells; type: cell-based, human; details: incubated with BDNF in the presence of kinase inhibitor, 24 hours
Procedure: FIG. 1. BDNF promotes neurite outgrowth of RA-treated SH-SY5Y, and induces phosphorylation of NgR1. (A) SH-SY5Y cells were incubated with indicated reagents. Cell images were taken with phase contrast microscopy. (B) Number of cells extending neurite-like structures of more than 40 μm and total cell number were counted from images taken in (A). More than 300 cells were examined in each sample. The proportion of cells extending neurite-like structures of more than 40 μm was indicated as a percentage of total cell number. An average of three experiments is shown. Error bars indicate S. E. between experiments. Data were analysed with student's t test. (C) Whole cell extracts were prepared from RA-treated SH-SY5Y cells after incubation with or without BDNF for 24 hours, and were analysed by SDS-PAGE. Immunoblotting was performed with the indicated antibodies. (D) Whole cell extract prepared from cells treated with both RA and BDNF was incubated with the indicated reagents for 1 hour at 37° C. Immunoblotting was performed with anti-NgR1 antibody. (E) RA-treated SH-SY5Y cells were incubated with BDNF in the presence or absence of one of the following: PKC inhibitor—500 nM Gö6983 or Gö6976; PKA inhibitor—2 μM KT5720 or a PKA inhibitor peptide 14-22; or either 500 nM or 1 μM of a casein kinase inhibitor, for 24 hours. Whole cell extracts prepared from these cells were analysed by SDS-PAGE. Immunoblotting was performed with anti-NgR1 antibody.
SH-SY5Y cells were cultured in Ham's F12 medium with 10% foetal bovine serum at 37° C. in 5% CO2 and 95% air. Passage numbers between 15 and 21 were used in experiments described in this paper. Further passages induce spontaneous differentiation and cells tend to extend neurites without BDNF (data not shown). For RA treatment, the cells are seeded (20,000 cells/well) on collagen IV coated 4 well chamber slides. After 24 hours culture, medium was changed to Ham's F12 medium containing 10 μM RA and 10% foetal bovine serum. Medium was changed to fresh medium on day 3 and cells were used for experiments after 5 days culture. Encinas et al. (18) reported that RA-treated SH-SY5Y cells initiate apoptosis after withdrawal of serum only when the cells are cultured at low density. The cell density used in this paper was higher than that in the paper by Encinas et al. (18) and cell death due to depletion of serum or BDNF was not significant. In this paper, the SH-SY5Y cells treated with RA for 5 days are called RA-treated SH-SY5Y. For BDNF treatment, the RA-treated SH-SY5Y cells were washed with serum-free Ham's F12 medium and incubated with 25 ng/ml BDNF in serum-free Ham's F12 medium for 24 hours. As a control (RA alone), the RA-treated SH-SY5Y cells were incubated with serum-free Ham's F12 alone for 24 hours.
Cells were scraped off from dishes and washed with PBS twice, and then resuspended in PBS containing 0.1% Triton X100 and phosphatase inhibitor cocktail (Roche) and EDTA-free protease inhibitor cocktail (Roche). After incubation for 15 min on ice, samples were centrifuged at 14,000×g for 20 min at 4° C. The supernatants containing 30 μg of proteins were analysed by SDS-PAGE and blotted to PVDF membrane. The PVDF membrane was incubated in blocking buffer (5% skimmed milk, 0.4% Triton X-100 in PBS) for 1 hour, first antibody diluted in the blocking buffer and appropriate secondary antibody labelled with horse radish peroxidase. Bound antibodies were visualised with ECL or ECL Plus kit (GE healthcare).

NgR1 [2] = target: T1, NgR1; experiment: Binding of OMgp to COS7 cells over-expressing NgR1; details: 281S/D mutant NgR1
Procedure: (§1) FIG. 3. CK2 phosphorylates NgR1, and inhibits binding of the myelin-associated proteins to NgR1. (A) Myc-tagged wild type, 281S/A or 281S/D mutant NgR1 were over-expressed in COS7 cells. The over-expressed cells were incubated with either the combination of ATP and CK2, or NEP1-40 for 30 min at 37° C. After washing with PBS, cells were incubated with Hisx6-tagged Nogo-GFP for 3 hours at 4° C. The cells were fixed and immunofluorescence was performed with anti-Myc and anti-GFP antibodies. (B) COS7 cells over-expressing Myc-tagged wild type NgR1 were treated as described in (A). Proteins were extracted and the Myc-tagged NgR1 was immunoprecipitated with anti-Myc antibody. Co-precipitated Hisx6-tagged Nogo-GFP was detected by anti-GFP antibody. […] The biotinylated proteins were fractionated and analysed by SDS-PAGE. Biotinylated NgR1-Myc was detected with anti-Myc. antibody. […] Myc-tagged proteins were immunoprecipitated and analysed with SDS-PAGE. […]
(§2) After treatment with or without CK2, COS7 cells over-expressing wild type or mutant NgR were incubated with Hisx6 tagged Nogo-GFP (10 μg/ml), HA-MAG (50 μg/ml) or Hisx6 tagged OMgp (10 μg/ml) in PBS for 3 hours at 4° C. […] Biotinylated proteins were precipitated with streptavidin beads and were analysed by SDS-PAGE. Each sample fractionated from 5×10^6 cells was analysed by SDS-PAGE.

NgR1 [3] = target: T1, NgR1; experiment: Binding of MAG to COS7 cells over-expressing NgR1; details: 281S/D mutant NgR1
Procedure: as §1, §2

Molecule	level of the upper band of NgR1 (NgR1 [1])	other results
Brc1c(Br)c(Br)c2[nH]nnc2c1Br [CK2 inhibitor, 4,5,6,7-Tetrabromo-2-azabenzimidazole]	decreased the upper band	–
Cn1c2ccccc2c2c3c(c4c5ccccc5n(CCC#N)c4c21)CNC3=O [Gö6976]	Neither PKC inhibitors Gö6983 and Gö6976, nor PKA inhibitors KT 5720 and a PKA inhibitor peptide, show effects	–
COc1ccc2c(c1)c(C1=C(c3c[nH]c4ccccc34)C(=O)NC1=O)cn2CCCN(C)C [Gö6983]	Neither PKC inhibitors Gö6983 and Gö6976, nor PKA inhibitors KT 5720 and a PKA inhibitor peptide, show effects	–
CCCCCCOC(=O)[C@]1(O)C[C@@H]2O[C@@]1(C)n1c3ccccc3c3c4c(c5c6ccccc6n2c5c31)C(=O)NC4 [KT 5720]	Neither PKC inhibitors Gö6983 and Gö6976, nor PKA inhibitors KT 5720 and a PKA inhibitor peptide, show effects	–
PKA inhibitor peptide: myristoylated PKA inhibitor peptide 14-22 amide, purchased from Merck (Myristoyl-SGRTGRRNA-NH2; SMILES CCCCCCCCCCCCCC(=O)N[C@@H](CO)C(=O)NCC(=O)N[C@@H](CCCNC(=N)N)C(=O)N[C@H](C(=O)NCC(=O)N[C@@H](CCCNC(=N)N)C(=O)N[C@@H](CCCNC(=N)N)C(=O)N[C@@H](CC(N)=O)C(=O)N[C@@H](C)C(N)=O)[C@@H](C)O; UniProt P61925 14-22, looked up, fragment)	Neither PKC inhibitors Gö6983 and Gö6976, nor PKA inhibitors KT 5720 and a PKA inhibitor peptide, show effects	–
OMgp: oligodendrocyte myelin glycoprotein, His-tagged, purchased from R&D (protein, UniProt P23515 25-417, looked up, His tag, oligodendrocyte myelin glycoprotein, His-tagged, purchased from R&D) Oligodendrocyte-myelin …: ICPLQCICTERHRHVDCSGRNLSTLPSGLQENIIHLNLSYNHFTDLHNQLTQYTNLRTLDISNNRLESLPAHLPRSLWNMSAANNNIKLLDKSDTAYQWNLKYLDVSKNMLEKVVLIKNTLRSLEVLNLSSNKLWTVPTNMPSKLHIVDLSNNSLTQILPGTLINLTNLTHLYLHNNKFTFIPDQSFDQLFQLQEITLYNNRWSCDHKQNITYLLKWMMETKAHVIGTPCSTQISSLKEHNMYPTPSGFTSSLFTVSGMQTVDTINSLSVVTQPKVTKIPKQYRTKETTFGATLSKDTTFTSTDKAFVPYPEDTSTETINSHEAAAATLTIHLQDGMVTNTSLTSSTKSSPTPMTLSITSGMPNNFSEMPQQSTTLNLWREETTTNVKTPLPS	–	binding of ligand to cells (NgR1 [2]): Neither OMgp nor MAG bound
MAG: human myelin-associated glycoprotein, HA-tagged, purified from COS7 conditioned medium (protein) GHWGAWMPSSISAFEGTCVSIPCRFDFPDELRPAVVHGVWYFNSPYPKNYPPVVFKSRTQVVHESFQGRSRLLGDLGLRNCTLLLSNVSPELGGKYYFRGDLGGYNQYTFSEHSVLDIVNTPNIVVPPEVVAGTEVEVSCMVPDNCPELRPELSWLGHEGLGEPAVLGRLREDEGTWVQVSLLHFVPTREANGHRLGCQASFPNTTLQFEGYASMDVKYPPVIVEMNSSVEAIEGSHVSLLCGADSNPPPLLTWMRDGTVLREAVAESLLLELEEVTPAEDGVYACLAENAYGQDNRTVGLSVMYAPWKPTVNGTMVAVEGETVSILCSTQSNPDPILTIFKEKQILSTVIYESELQLELPAVSPEDDGEYWCVAENQYGQRATAFNLSVEFAPVLLLESHCAAARDTVQCLCVVKSNPEPSVAFELPSRNVTVNESEREFVYSERSGLVLTSILTLRGQAQAPPRVICTARNLYGAKSLELPFQG	–	binding of ligand to cells (NgR1 [3]): Neither OMgp nor MAG bound
